Reference: ChEMBL document CHEMBL5104182, “Design and Synthesis of a 2-Amino-pyridine Derivative as a Potent CDK8 Inhibitor for Anti-colorectal Cancer Therapy” (J Med Chem, 2022)
Calls of active or inactive are those of the source. No cut-off for these calls is given here.

Tests used:
[1] = Toxicity in Balb/c mouse assessed as ALT level in serum at 1000 mg/kg, using gastric tube; format: organism-based; conditions: in vivo, po, route ig
[2] = AUC (0 to infinitive) in Sprague-Dawley rat at 2 mg/kg, iv upto 24 hrs by HPLC analysis; format: ADME, organism-based; set-up: time < 24 hrs, dose 2 mg/kg, route iv; conditions: in vivo
[3] = AUC (0 to infinitive) in Sprague-Dawley rat at 10 mg/kg, po upto 24 hrs by HPLC analysis; format: ADME, organism-based; set-up: dose 10 mg/kg, time < 24 hrs, route po; conditions: in vivo
[4] = Cmax in Sprague-Dawley rat at 2 mg/kg, iv upto 24 hrs by HPLC analysis; format: ADME, organism-based; set-up: dose 2 mg/kg, time < 24 hrs, route iv; conditions: in vivo
[5] = MRT in Sprague-Dawley rat at 10 mg/kg, po upto 24 hrs by HPLC analysis; format: ADME, organism-based; conditions: in vivo
[6] = Half life in Sprague-Dawley rat at 2 mg/kg, iv upto 24 hrs by HPLC analysis; format: ADME, organism-based; conditions: in vivo
[7] = Half life in Sprague-Dawley rat at 10 mg/kg, po upto 24 hrs by HPLC analysis; format: ADME, organism-based; conditions: in vivo
[8] = Toxicity in ICR mouse assessed as kidney damage at 1000 mg/kg, using gastric tube by H&E staining assay; format: organism-based; conditions: in vivo, po, route ig
[9] = Toxicity in ICR mouse assessed as lung damage at 1000 mg/kg, using gastric tube by H&E staining assay; format: organism-based; conditions: in vivo, po, route ig
[10] = Toxicity in ICR mouse assessed as spleen damage at 1000 mg/kg, using gastric tube by H&E staining assay; format: organism-based; conditions: in vivo, po, route ig
[11] = Toxicity in ICR mouse assessed as liver damage at 1000 mg/kg, using gastric tube by H&E staining assay; format: organism-based; conditions: in vivo, po, route ig
CT26 [12] = test: In vivo inhibition of CDK8 in mouse CT26 cells transplanted in […] mouse assessed as downregulation of beta-catenin in tumor at 10 to 40 mg/kg, po daily measured after 21 days; format: functional, organism-based; conditions: dose 10-40 mg/kg, time 21.0 day
HCT-116 [13] = test: Antiproliferative activity against human HCT-116 cells assessed as cell viability incubated for 48 hrs by MTT assay; format: functional
HT-29 = test: Antiproliferative activity against human HT-29 cells assessed as cell viability incubated for 48 hrs by MTT assay; format: functional
SW480 = test: Antiproliferative activity against human SW480 cells assessed as cell viability incubated for 48 hrs by MTT assay; format: functional
CT26 [14] = test: Antiproliferative activity against […] cells assessed as cell viability incubated for 48 hrs by MTT assay; format: functional; conditions: Mus musculus
[15] = Cytotoxicity against human GES1 cells assessed as cell viability incubated for 48 hrs by MTT assay; format: toxicity, cell-based
[16] = target: Cyclin-dependent kinase 6 (Homo sapiens, UniProt Q00534); test: Inhibition of CDK6 (unknown origin) assessed as inhibition rate
Sequence of Cyclin-dependent kinase 6 (Q00534 whole entry): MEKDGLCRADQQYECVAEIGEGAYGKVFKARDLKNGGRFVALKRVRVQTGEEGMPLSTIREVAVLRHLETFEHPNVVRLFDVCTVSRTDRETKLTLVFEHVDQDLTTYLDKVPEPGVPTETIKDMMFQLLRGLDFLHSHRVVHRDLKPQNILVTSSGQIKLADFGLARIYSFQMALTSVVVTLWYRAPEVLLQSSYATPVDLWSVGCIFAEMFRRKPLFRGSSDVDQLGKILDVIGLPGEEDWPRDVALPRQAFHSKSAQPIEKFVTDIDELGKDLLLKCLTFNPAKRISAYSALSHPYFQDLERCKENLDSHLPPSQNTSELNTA

[17] = target: Cyclin-dependent kinase 7 (Homo sapiens, UniProt P50613); test: Inhibition of CDK7 (unknown origin) assessed as inhibition rate
Sequence of Cyclin-dependent kinase 7 (P50613 whole entry): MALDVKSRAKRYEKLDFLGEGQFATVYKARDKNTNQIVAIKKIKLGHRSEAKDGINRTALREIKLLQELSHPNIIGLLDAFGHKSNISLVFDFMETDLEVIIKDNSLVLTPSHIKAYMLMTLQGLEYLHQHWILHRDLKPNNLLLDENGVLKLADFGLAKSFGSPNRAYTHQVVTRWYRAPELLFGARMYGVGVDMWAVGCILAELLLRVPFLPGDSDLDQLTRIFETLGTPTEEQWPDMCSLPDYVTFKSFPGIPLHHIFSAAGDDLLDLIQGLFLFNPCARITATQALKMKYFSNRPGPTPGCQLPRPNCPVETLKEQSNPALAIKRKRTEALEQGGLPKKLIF

Homo sapiens = organism: Homo sapiens; test: Selectivity ratio of IC50 for human CDK6 to IC50 for human CDK8
[18] = target: T1, Cyclin-dependent kinase 8 (Homo sapiens, UniProt P49336); test: Binding affinity to CDK8 in human HCT-116 cells by measuring competition with biotinylated (1-(4-((6-aminopyridin-3-yl)oxy)phenyl)-3-(3-(trifluoromethyl)-phenyl)urea hydrochloride); format: cell-based
T1 sequence (P49336 whole entry): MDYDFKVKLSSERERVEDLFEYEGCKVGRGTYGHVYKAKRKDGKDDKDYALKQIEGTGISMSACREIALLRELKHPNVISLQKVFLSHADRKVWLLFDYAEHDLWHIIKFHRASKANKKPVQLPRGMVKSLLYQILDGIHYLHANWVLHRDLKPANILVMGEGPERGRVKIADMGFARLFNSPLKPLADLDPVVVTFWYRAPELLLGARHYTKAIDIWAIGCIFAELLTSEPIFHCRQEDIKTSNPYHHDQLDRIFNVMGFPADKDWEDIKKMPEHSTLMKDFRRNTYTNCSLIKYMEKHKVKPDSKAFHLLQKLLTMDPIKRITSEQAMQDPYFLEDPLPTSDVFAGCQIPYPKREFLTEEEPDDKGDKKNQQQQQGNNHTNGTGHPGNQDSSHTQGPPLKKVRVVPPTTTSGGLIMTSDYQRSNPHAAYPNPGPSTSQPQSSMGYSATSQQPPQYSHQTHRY

[19] = target: T1, Cyclin-dependent kinase 8; test: Binding affinity to CDK8 in human HCT-116 cells assessed as increase in degradation temperature of protein by CETSA (reference value: 49 degC); format: cell-based
[20] = target: T1, Cyclin-dependent kinase 8; test: Inhibition of CDK8 in human HCT-116 cells assessed as inhibition of STAT1 phosphorylation at Ser727 by Western blot analysis; format: cell-based
[21] = target: T1, Cyclin-dependent kinase 8; test: Inhibition of CDK8 in human HCT-116 cells assessed as inhibition of […] phosphorylation at Tyr701 by Western blot analysis; format: cell-based
[22] = target: T1, Cyclin-dependent kinase 8; test: Binding affinity to CDK8-Flag (unknown origin) transfected in HEK293T cells; format: cell-based
HCT-116 [23] = test: Decrease in Cyclin D1 expression in human HCT-116 cells at 1 to 4 uM incubated for 48 hrs by western blotting analysis; format: functional, cell-based; conditions: dose 1-4 µM
HCT-116 [24] = test: Decrease in Lef expression in human HCT-116 cells at 1 to 4 uM incubated for 48 hrs by western blotting analysis; format: functional, cell-based; conditions: dose 1-4 µM
HCT-116 [25] = test: Decrease in TCF1 expression in human HCT-116 cells at 1 to 4 uM incubated for 48 hrs by western blotting analysis; format: functional, cell-based; conditions: dose 1-4 µM
HCT-116 [26] = test: Decrease in beta-catenin expression in human HCT-116 cells at 1 to 4 uM incubated for 12 hrs by western blotting analysis; format: functional, cell-based; conditions: dose 1-4 µM
HCT-116 [27] = test: Decrease in WNT-3alpha expression in human HCT-116 cells at 1 to 4 uM incubated for 12hrs by western blotting analysis; format: functional, cell-based; conditions: dose 1-4 µM
HCT-116 [28] = test: Decrease in beta-catenin/TCF combination expression in human HCT-116 cells transfected with TOPFLASH at 1 to 4 uM incubated for 24 hrs by luciferase assay; format: functional, cell-based; conditions: dose 1-4 µM
HCT-116 [29] = test: Induction of cell cycle arrest in human HCT-116 cells assessed as increase in cells at G1 phase measured after 48 hrs by flow cytometry; format: functional, cell-based
HCT-116 [30] = test: Induction of cell cycle arrest in human HCT-116 cells assessed as increase in cells at G2/M phase measured after 48 hrs by flow cytometry; format: functional, cell-based
HCT-116 [31] = test: Induction of cell cycle arrest in human HCT-116 cells assessed as increase in cells at S phase measured after 48 hrs by flow cytometry; format: functional, cell-based
HCT-116 [32] = test: Induction of cell cycle arrest in human HCT-116 cells assessed as decrease in CDK6 level incubated for 24 hrs by Western blot analysis; format: functional, cell-based
HCT-116 [33] = test: Induction of cell cycle arrest in human HCT-116 cells assessed as increase in E2F1 level incubated for 24 hrs by Western blot analysis; format: functional, cell-based
HCT-116 [34] = test: Decrease in CTD phosphorylation in human HCT-116 cells at 1 to 4 uM incubated for 48 hrs by western blotting analysis; format: functional, cell-based; conditions: dose 1-4 µM
HCT-116 [35] = test: Potency index, ratio of Sorafenib IC50 to test compound IC50 for antiproliferative activity against human HCT-116 cells incubated for 48 hrs by MTT assay; format: functional
HCT-116 [36] = test: Reduction in P-gp expression in sorafenib-resistant human HCT-116 cells by Western blot analysis; format: functional, cell-based; conditions: dose 1-4 µM, DDE = dose-dependent effect
CT26 [37] = test: Anticancer activity against mouse CT26 cells transplanted in […] mouse assessed as reduction in tumor growth at 10 to 40 mg/kg, po daily measured after 21 days; format: functional, organism-based; conditions: dose 10-40 mg/kg, time 21.0 day
CT26 [38] = test: Anticancer activity against mouse CT26 cells transplanted in […] mouse assessed as reduction in tumor volume at 10 to 40 mg/kg, po daily measured after 21 days; format: functional, organism-based; conditions: dose 10-40 mg/kg, time 21.0 day
CT26 [39] = test: In vivo inhibition of CDK8 in mouse CT26 cells transplanted in […] mouse assessed as downregulation of c-Myc in tumor at 10 to 40 mg/kg, po daily measured after 21 days; format: functional, organism-based; conditions: dose 10-40 mg/kg, time 21.0 day
CT26 [40] = test: In vivo inhibition of CDK8 in mouse CT26 cells transplanted in […] mouse assessed as upregulation of E2F1 in tumor at 10 to 40 mg/kg, po daily measured after 21 days; format: functional, organism-based; conditions: dose 10-40 mg/kg, time 21.0 day
[41] = target: T1, Cyclin-dependent kinase 8; conditions: dose 200.0 nM

Structure (SMILES): Nc1ccc(Oc2ccc(NC(=O)Nc3cccc(C(F)(F)F)c3)cc2)cn1
- Activity [1]: Non-Toxic
- AUC(0-inf) [2]: 382 ng·h/mL
- AUC(0-inf) [3]: 665 ng·h/mL
- Cmax [4]: 318 ng/mL
- MRT [5]: 1.6 h
- half-life [6]: 0.5 h
- half-life [7]: 1.1 h
- Activity [8]: Non-Toxic
- Activity [9]: Non-Toxic
- Activity [10]: Non-Toxic
- Activity [11]: Non-Toxic
- Activity (CT26 [12]): Active
- GI50 (HCT-116 [13]): 1.2 µM
- GI50 (HT-29): 0.7 µM
- GI50 (SW480): 2.4 µM
- GI50 (CT26 [14]): 5.5 µM
- GI50 at 48 h [15]: 62.7 µM
- IC50 [16]: 0.251 µM
- IC50 [17]: 0.0996 µM
- Ratio IC50 (Homo sapiens): 2
- Activity [18]: Active
- Tm [19]: 55 °C
- inhibition [20]: Active
- inhibition [21]: Active
- Activity [22]: Active
- Activity (HCT-116 [23]): Active
- Activity (HCT-116 [24]): Active
- Activity (HCT-116 [25]): Active
- Activity (HCT-116 [26]): Active
- Activity (HCT-116 [27]): Active
- Activity (HCT-116 [28]): Active
- Activity (HCT-116 [29]): Active
- Activity (HCT-116 [30]): Active
- Activity (HCT-116 [31]): Active
- Activity (HCT-116 [32]): Active
- Activity (HCT-116 [33]): Active
- Activity (HCT-116 [34]): Active
- Ratio (HCT-116 [35]): 3.6
- Activity (HCT-116 [36]): Dde
- Activity (CT26 [37]): Active
- Activity (CT26 [38]): Active
- Activity (CT26 [39]): Active
- Activity (CT26 [40]): Active
- inhibition [41]: 73.6%
